Assay results taken from article PMC6259751, “Investigating Spectrum of Biological Activity of 4- and 5-Chloro-2-hydroxy-N-[2-(arylamino)-1-alkyl-2-oxoethyl]benzamides” (Molecules, 2011).
In brackets after ≈: the same amount, converted by molar mass. Read-outs that look alike come from different tables or passages of the source.

Legend:
[1] = Lipophilicity determination by RP-HPLC (capacity factor k / log k); assay type: physicochemical; settings: C18 column, MeOH 70% / H2O 30%, isocratic
Experimental: Hydrophobicities (log P/Clog P) of compounds 8 and 9 were calculated using two commercially available programs (ChemOffice Ultra 10.0 and ACD/LogP) and measured by means of RP-HPLC determination of capacity factors k with subsequent calculation of log k. The procedure was performed under isocratic conditions with methanol as an organic modifier in the mobile phase using an end-capped non-polar C18 stationary RP column. The results are shown in Table 1 and illustrated in Figure 1.
A Waters Alliance 2695 XE HPLC separation module and a Waters Photodiode Array Detector 2996 (Waters Corp., Milford, MA, USA) were used. A Symmetry® C18 5 μm, 4.6 × 250 mm, Part No. WAT054275 (Waters Corp., Milford, MA, USA) chromatographic column was used. The HPLC separation process was monitored by Empower™ 2 Chromatography Data Software, Waters 2009 (Waters Corp., Milford, MA, USA). A mixture of MeOH p.a. (70%) and H2O-HPLC – Mili-Q Grade (30%) was used as a mobile phase. The total flow of the column was 1.0 mL/min, injection volume, 30 μL, column temperature, 30 °C and sample temperature, 10 °C. The detection wavelength of 210 nm was chosen. The KI methanolic solution was used for the dead time (tD) determination. Retention times (tR) were measured in minutes. The capacity factors k were calculated using the Empower™ 2 Chromatography Data Software according to formula k = (tR - tD)/tD, where tR is the retention time of the solute, whereas tD denotes the dead time obtained using an unretained analyte. Log k, calculated from the capacity factor k, is used as the lipophilicity index converted to log P scale.

[2] = test system: photosynthetic electron transport (PET) in spinach chloroplasts; experiment: Inhibition of photosynthetic electron transport (PET) in spinach chloroplasts; assay type: biochemical, Spinacia oleracea L.; settings: DCPIP photoreduction
Experimental: Chloroplasts were prepared from spinach (Spinacia oleracea L.) according to Masarovicova and Kralova. The inhibition of photosynthetic electron transport (PET) in spinach chloroplasts was determined spectrophotometrically (Genesys 6, Thermo Scientific, USA), using an artificial electron acceptor 2,6-dichlorophenol-indophenol (DCIPP) according to Kralova et al., and the rate of photosynthetic electron transport was monitored as a photoreduction of DCPIP. The measurements were carried out in phosphate buffer (0.02 mol/L, pH 7.2) containing sucrose (0.4 mol/L), MgCl2 (0.005 mol/L) and NaCl (0.015 mol/L). The chlorophyll content was 30 mg/L in these experiments and the samples were irradiated (~100 W/m^2) from 10 cm distance with a halogen lamp (250 W) using a 4 cm water filter to prevent warming of the samples. The studied compounds were dissolved in DMSO due to their limited water solubility. […] The inhibitory efficiency of the studied compounds was expressed by IC50 values, i.e. by molar concentration of the compounds causing 50% decrease in the oxygen evolution rate relative to the untreated control.

[3] = test system: Mycobacterium tuberculosis MTB CNCTC My 331/88; experiment: In vitro antimycobacterial evaluation; assay type: cell-based; settings: IC90 value
[4] = test system: Mycobacterium avium MA CNCTC My 330/88; experiment: In vitro antimycobacterial evaluation; assay type: cell-based; settings: IC90 value
[5] = test system: Mycobacterium kansasii MK CNCTC My 235/80; experiment: In vitro antimycobacterial evaluation; assay type: cell-based; settings: IC90 value
Candida tropicalis 156 = experiment: In vitro antifungal susceptibility testing (broth microdilution); assay type: cell-based; settings: M27-A2 for yeasts, IC80 value
[6] = test system: Trichophyton mentagrophytes 445; experiment: as above; assay type: cell-based; settings: M38-A for moulds, IC50 value, read-out: MIC TM
[7] = test system: Staphylococcus aureus CCM 4516/08; experiment: In vitro antibacterial susceptibility testing (broth microdilution); settings: read-out: MIC SA
[8] = test system: methicilin resistant Staphylococcus aureus H 5996/08; experiment: as above
[9] = test system: Staphylococcus epidermidis H 6966/08; experiment: as above
[10] = test system: Enterococcus sp. J 14365/08; experiment: as above; settings: read-out: MIC EF
[11] = read-out: activity against methicillin-resistant Staphylococcus aureus (MIC)
[12] = H6966/08, 24 h, read-out: MIC SE
[13] = H6966/08, 48 h, read-out: MIC SE

Structure (SMILES) | log k [1] | IC50 [2] | MIC ([3]; 14h) | MIC ([3]; 21h) | MIC ([4]; 14h) | MIC ([4]; 21h) | MIC ([5]; 14h) | MIC ([5]; 21h) | MIC (Candida tropicalis 156; 24h) | MIC (Candida tropicalis 156; 48h) | MIC ([6]; 72h) | MIC ([6]; 120h) | MIC ([7]; CCM4516, 24 h) | MIC ([7]; CCM4516, 48 h) | MIC ([8]; MRSA, 24 h, read-out: MIC MRSA) | MIC ([8]; MRSA, 48 h, read-out: MIC MRSA) | MIC [9, 12] | MIC [9, 13] | MIC ([10]; SP.J14365/08, 24 h) | MIC ([10]; SP.J14365/08, 48 h) | further results
CC(C)[C@H](NC(=O)c1ccc(Cl)cc1O)C(=O)Nc1ccc(C(F)(F)F)cc1 [9h] | 0.7892 | 14.2 µM |  |  |  |  |  |  |  |  |  |  |  |  |  |  |  |  |  |  | 
COc1ccc(NC(=O)[C@@H](NC(=O)c2ccc(Cl)cc2O)C(C)C)cc1 [9j] | 0.3623 | 35.7 µM |  |  |  |  |  |  |  |  |  |  |  |  |  |  |  |  |  |  | 
Cc1ccc(NC(=O)[C@@H](NC(=O)c2ccc(Cl)cc2O)C(C)C)cc1 [9i] | 0.5902 | 37.3 µM |  |  |  |  |  |  |  |  |  |  |  |  |  |  |  |  |  |  | 
C[C@@H](NC(=O)c1ccc(Cl)cc1O)C(=O)Nc1ccc(Cl)cc1 [9b, 4-Chloro-N-{(1R)-2-[(4-chlorophenyl)-amino]-1-methyl-2-oxoethyl}-2-hydroxy benzamide] | 0.4921 |  | 32 µM (≈ 11.3 µg/mL) | 62.5 µM (≈ 22.1 µg/mL) | 125 µM (≈ 44.2 µg/mL) | 125 µM (≈ 44.2 µg/mL) | 125 µM (≈ 44.2 µg/mL) | 125 µM (≈ 44.2 µg/mL) | 250 µM (≈ 88.3 µg/mL) | 250 µM (≈ 88.3 µg/mL) | 250 µM (≈ 88.3 µg/mL) | 250 µM (≈ 88.3 µg/mL) | 7.81 µM (≈ 2.76 µg/mL) | 7.81 µM (≈ 2.76 µg/mL) | 7.81 µM (≈ 2.76 µg/mL) | 7.81 µM (≈ 2.76 µg/mL) | 1.95 µM (≈ 0.689 µg/mL) | 1.95 µM (≈ 0.689 µg/mL) | 500 µM (≈ 177 µg/mL) | 500 µM (≈ 177 µg/mL) | MIC [8, 11]: 7.81 µM (≈ 2.76 µg/mL); MIC ([9]; H6966/08, read-out: activity against S. epidermidis (MIC)): 1.95 µM (≈ 0.689 µg/mL)
CC(C)[C@@H](NC(=O)c1ccc(Cl)cc1O)C(=O)Nc1ccc(Br)cc1 [9g] | 0.7353 | 24 µM |  |  |  |  |  |  |  |  |  |  |  |  |  |  |  |  |  |  | 
CC(C)[C@@H](NC(=O)c1cc(Cl)ccc1O)C(=O)Nc1ccc(Br)cc1 [8t] | 0.6646 |  | 62.5 µM (≈ 26.6 µg/mL) | 62.5 µM (≈ 26.6 µg/mL) | 62.5 µM (≈ 26.6 µg/mL) | 62.5 µM (≈ 26.6 µg/mL) | 62.5 µM (≈ 26.6 µg/mL) | 125 µM (≈ 53.2 µg/mL) | > 125 µM | > 125 µM | > 125 µM | > 125 µM | > 125 µM | > 125 µM | > 125 µM | > 125 µM | > 125 µM | > 125 µM | > 125 µM | > 125 µM | 
C[C@H](NC(=O)c1cc(Cl)ccc1O)C(=O)Nc1ccc(Cl)c(Cl)c1 [8n] | 0.6698 |  | 32 µM (≈ 12.4 µg/mL) | 32 µM (≈ 12.4 µg/mL) | 32 µM (≈ 12.4 µg/mL) | 62.5 µM (≈ 24.2 µg/mL) | 62.5 µM (≈ 24.2 µg/mL) | 500 µM (≈ 194 µg/mL) | > 125 µM | > 125 µM | > 125 µM | > 125 µM | > 500 µM | > 500 µM | > 500 µM | > 500 µM | > 500 µM | > 500 µM | > 500 µM | > 500 µM | 
CC(C)[C@H](NC(=O)c1cc(Cl)ccc1O)C(=O)Nc1ccc(Cl)cc1 [8i] | 0.6371 |  | 32 µM (≈ 12.2 µg/mL) | 32 µM (≈ 12.2 µg/mL) | 62.5 µM (≈ 23.8 µg/mL) | 62.5 µM (≈ 23.8 µg/mL) | 62.5 µM (≈ 23.8 µg/mL) | 62.5 µM (≈ 23.8 µg/mL) | > 125 µM | > 125 µM | > 125 µM | > 125 µM | 7.81 µM (≈ 2.98 µg/mL) | 15.6 µM (≈ 5.96 µg/mL) | 15.6 µM (≈ 5.96 µg/mL) | 15.6 µM (≈ 5.96 µg/mL) | 31.2 µM (≈ 11.9 µg/mL) | 250 µM (≈ 95.3 µg/mL) | 31.2 µM (≈ 11.9 µg/mL) | 150 µM (≈ 57.2 µg/mL) | 
CC(C)[C@@H](NC(=O)c1cc(Cl)ccc1O)C(=O)Nc1ccc(Cl)cc1 [8j] | 0.6125 |  | 32 µM (≈ 12.2 µg/mL) | 32 µM (≈ 12.2 µg/mL) | 62.5 µM (≈ 23.8 µg/mL) | 62.5 µM (≈ 23.8 µg/mL) | 62.5 µM (≈ 23.8 µg/mL) | 62.5 µM (≈ 23.8 µg/mL) | > 125 µM | > 125 µM | 62.5 µM (≈ 23.8 µg/mL) | 62.5 µM (≈ 23.8 µg/mL) | 7.81 µM (≈ 2.98 µg/mL) | 7.81 µM (≈ 2.98 µg/mL) | 7.81 µM (≈ 2.98 µg/mL) | 7.81 µM (≈ 2.98 µg/mL) | 31.2 µM (≈ 11.9 µg/mL) | 125 µM (≈ 47.7 µg/mL) | 250 µM (≈ 95.3 µg/mL) | 500 µM (≈ 191 µg/mL) | MIC [8, 11]: 7.81 µM (≈ 2.98 µg/mL)
O=C(N[C@@H](Cc1ccccc1)C(=O)Nc1ccc(Cl)cc1)c1ccc(Cl)cc1O [9e] | 0.7540 |  | 32 µM (≈ 13.7 µg/mL) | 32 µM (≈ 13.7 µg/mL) | 32 µM (≈ 13.7 µg/mL) | 62.5 µM (≈ 26.8 µg/mL) | 32 µM (≈ 13.7 µg/mL) | 62.5 µM (≈ 26.8 µg/mL) | 125 µM (≈ 53.7 µg/mL) | 125 µM (≈ 53.7 µg/mL) | 125 µM (≈ 53.7 µg/mL) | 125 µM (≈ 53.7 µg/mL) | > 250 µM | > 250 µM | > 250 µM | > 250 µM | > 250 µM | > 250 µM | > 500 µM | > 500 µM | 
O=C(N[C@H](Cc1ccccc1)C(=O)Nc1ccc(Br)cc1)c1cc(Cl)ccc1O [8v] | 0.7673 |  | 32 µM (≈ 15.2 µg/mL) | 32 µM (≈ 15.2 µg/mL) | 250 µM (≈ 118 µg/mL) | 250 µM (≈ 118 µg/mL) | 32 µM (≈ 15.2 µg/mL) | 32 µM (≈ 15.2 µg/mL) | 500 µM (≈ 237 µg/mL) | > 500 µM | 500 µM (≈ 237 µg/mL) | > 500 µM | 3.9 µM (≈ 1.85 µg/mL) | 15.6 µM (≈ 7.4 µg/mL) | 7.81 µM (≈ 3.7 µg/mL) | 15.6 µM (≈ 7.4 µg/mL) | 62.5 µM (≈ 29.6 µg/mL) | 125 µM (≈ 59.2 µg/mL) | 62.5 µM (≈ 29.6 µg/mL) | 62.5 µM (≈ 29.6 µg/mL) | 
